Patent US20240150335A1, “FUSED RING DERIVATIVES CONTAINING 1,4-OXAZEPANE” (MEDSHINE DISCOVERY INC., priority 2021, published 2024)

Legend:
[1] = biological target: Recombinant human cathepsin C/DPP1; experiment: Inhibition effect test of DPP1 enzyme activity; type: biochemical; settings: recombinant human cathepsin C/DPP1, Gly-Arg-AMC substrate 12.5 μM, 25° C. 60 minutes; read-out: IC50, inhibitory activity on DPP1 enzyme
Procedure: Experimental Example 1: Inhibition Effect Test of DPP1 Enzyme Activity
Recombinant human cathepsin C/DPP1 was purchased from R&D Systems;
Recombinant human cathepsin L (rhCathepsin L) was purchased from R&D Systems;
Gly-Arg-AMC (hydrochloride) was purchased from CAYMAN CHEMICAL COMPANY.
1× activation buffer: 5 mM DTT 0.01% (V/V) Triton X-100 (preparation for current use);
1× assay buffer: 50 mM NaCl 5 mM DTT 0.01% (V/V) Triton X-100 (preparation for current use);
1× activation buffer was used to dilute recombinant human cathepsin C/DPP1 enzyme and recombinant human cathepsin L (rhCathepsin L) enzyme to concentrations of 2 ng/μL and 0.4 ng/μL, respectively; equal volume of two working solutions of enzyme was taken, mixed well and incubated at 25° C. for 60 minutes;
the compounds to be tested were 5-fold diluted with a multi-channel pipette to the 8th concentration, i.e., diluted from 1 mM to 12.8 nM. Then 1× experimental buffer was used to dilute each compound to be tested by gradient into a 4% DMSO working solution. The working solution was added to corresponding wells for 5 μL/well, and duplicate experiment was set. The mixture was centrifuged at 1000 rpm for 1 minute;
5 μL/well of the enzyme mixture after incubation was taken and added to the white microwell plate. At this time, the amount of DPP1 enzyme in each well was 5 ng; 1× experimental buffer in 5 μL/well was added to the blank control well;
Gly-Arg-AMC (hydrochloride) was diluted to 25 μM with 1× assay buffer. The diluted mixture in 10 μL/well was added to a white microwell plate. The substrate concentration was 12.5 μM at this time, and the microplate was centrifuged in a centrifuge at 1000 rpm for 1 minute. […] After centrifugation, the microplate was covered with membrane and incubated at 25° C. for 60 minutes;
after incubation, fluorescence detection was performed using a multi-label analyzer with an excitation wavelength of 360 nm and an emission wavelength of 460 nm.
Using the equation (Sample−Min)/(Max−Min)×100% to convert the raw data into enzyme activity, the IC50 value might be obtained by curve fitting with four parameters (obtained by “log (inhibitor) vs. response—Variable slope” mode in GraphPad Prism).
Max: Contains recombinant human cathepsin C/DPP1, recombinant human cathepsin L (rhCathepsin L), and Gly-Arg-AMC (hydrochloride)
Min: No recombinant human cathepsin C/DPP1 and recombinant human cathepsin L (rhCathepsin L)

[2] = biological target: DPP1 of U937 cells (Homo sapiens (Human), UniProt P53634); experiment: Activity test of inhibiting DPP1 in U937 cells; type: cell-based; settings: Gly-Phe-AFC probe, read-out: IC50, inhibitory activity on DPP1 of U937 cells
DPP1 of U937 cells, sequence (P53634 25-134): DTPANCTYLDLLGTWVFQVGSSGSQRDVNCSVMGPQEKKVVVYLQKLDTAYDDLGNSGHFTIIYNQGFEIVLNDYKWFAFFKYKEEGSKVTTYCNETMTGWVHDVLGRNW
DPP1 of U937 cells, sequence (P53634 231-394): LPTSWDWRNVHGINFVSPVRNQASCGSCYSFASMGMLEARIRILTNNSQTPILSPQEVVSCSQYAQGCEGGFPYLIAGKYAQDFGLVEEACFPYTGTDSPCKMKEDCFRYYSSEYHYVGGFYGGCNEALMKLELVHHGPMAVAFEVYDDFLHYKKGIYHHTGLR
DPP1 of U937 cells, sequence (P53634 395-463): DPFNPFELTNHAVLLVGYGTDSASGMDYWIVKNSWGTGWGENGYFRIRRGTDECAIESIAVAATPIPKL
Procedure: Experimental Example 2: Activity Test of Inhibiting DPP1 in U937 Cells
Experimental Materials: • 1) Experimental reagents and consumables
The cell plate was placed in a carbon dioxide incubator for 1 day; • (3) after incubation for 1 hour, 100 μM Gly-Phe-AFC probe solution was added thereto, that is, 60 mM Gly-Phe-AFC probe stock solution was diluted with culture medium to 500 μM working solution; the working solution in 10 μL per well was transferred into the cell plate, and the cell plate was incubated in a carbon dioxide incubator for 1 hour;
3) the plate was read, and the data were analyzed: • (1) plate reading: after the cell incubation was completed, the cell plate was taken out, and the plate was read on Victor Nivo.
Using the equation (Sample−Min)/(Max−Min)×100% to convert the raw data into inhibition rate, the IC50 value might be obtained by curve fitting with four parameters (obtained by “log (inhibitor) vs. response—Variable slope” mode in GraphPad Prism).

SMILES | IC50 [1] [nM] | IC50 [2] [nM]
Cc1cc(-c2ccc3cnn(C)c3c2)ccc1C[C@H](C#N)NC(=O)[C@@H]1CNCCCO1 [Compound 17] | 22.5 | –
CC(C)n1ncc2ccc(-c3ccc(C[C@@H](C#N)NC(=O)[C@@H]4CNCCCO4)cc3)cc21 [Compound 9] | 14 | –
CN1Cc2cc(-c3ccc(C[C@@H](C#N)NC(=O)[C@@H]4CNCCCO4)cc3)ccc2C1=O [Compound 5] | 28.3 | 9.32
Cn1nc(F)c2ccc(-c3ccc(C[C@H](C#N)NC(=O)[C@@H]4CNCCCO4)c(F)c3)cc21 [Compound 18] | 1.23 | 5.43
Cn1ncc2ccc(-c3ccc(C[C@@H](C#N)NC(=O)[C@@H]4CNCCCO4)cc3)cc21 [Compound 2] | 26.8 | 8.95
CN1CCOc2ccc(-c3ccc(C[C@H](C#N)NC(=O)[C@@H]4CNCCCO4)c(F)c3)cc21 [Compound 15] | 3.65 | –
CN1CCC(n2ncc3ccc(-c4ccc(C[C@H](C#N)NC(=O)[C@@H]5CNCCCO5)c(F)c4)cc32)CC1 [Compound 24] | 1 | 3.12
Cn1ncc2ccc(-c3ccc(C[C@H](C#N)NC(=O)[C@@H]4CNCCCO4)c(Cl)c3)cc21 [Compound 16] | 9.18 | –
Cn1nnc2ccc(-c3ccc(C[C@@H](C#N)NC(=O)[C@@H]4CNCCCO4)cc3)cc21 [Compound 4] | 10.8 | 1.32
N#C[C@@H](Cc1ccc(-c2ccc3cnn(C4CCNCC4)c3c2)cc1F)NC(=O)[C@@H]1CNCCCO1 [Compound 22] | 0.76 | –
N#C[C@H](Cc1ccc(-c2ccc3cnn(C4CCOCC4)c3c2)cc1F)NC(=O)[C@@H]1CNCCCO1 [Compound 12] | 2.38 | 1.81

Further lines, results first:

IC50 [1] [nM] | IC50 [2] [nM] | SMILES
4.55 | 8.7 | N#C[C@@H](Cc1ccc(-c2cc(F)c3cn[nH]c3c2)cc1F)NC(=O)[C@@H]1CNCCCO1 [Compound 19]
20.4 | 6.33 | N#C[C@H](Cc1ccc(-c2ccc3nccn3c2)cc1F)NC(=O)[C@@H]1CNCCCO1 [Compound 13]
4.39 | 8.53 | CC(C)n1ncc2ccc(-c3ccc(C[C@@H](C#N)NC(=O)[C@@H]4CNCCCO4)c(F)c3)cc21 [Compound 10]
2.52 | 2.49 | Cn1nnc2ccc(-c3ccc(C[C@@H](C#N)NC(=O)[C@@H]4CNCCCO4)c(F)c3)cc21 [Compound 7]
17.3 | 9.27 | N#C[C@@H](Cc1ccc(-c2cnc3cc[nH]c3c2)cc1F)NC(=O)[C@@H]1CNCCCO1 [Compound 21]
28.1 | 2.79 | N#C[C@@H](Cc1ccc(-c2ccc3nccn3c2)cc1F)NC(=O)[C@@H]1CNCCCO1 [Compound 14]
